Here are results for 18 compounds from patent US20230095836A1, “SUBSTITUTED 5,6-DIPHENYL-3(2H)-PYRIDAZINONES FOR USE AS FUNGICIDES” (FMC Corporation, priority 2020, published 2023).

What all share (format): in vivo
Holding throughout (details): 50 ppm

The subject of one experiment is Alternaria solani. Kind of experiment: Test F: test suspension sprayed on tomato seedlings, inoculated next day with Alternaria solani (tomato early blight); visual disease rating (100 = 100% disease control, 0 = no control; dash = not tested). The essentials:
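Tomato seedlings sprayed to run-off with test suspension, inoculated next day with A. solani spores, held saturated at 27° C. for 48 h, then 20° C. for 3 days. Disease visually rated as % control relative to untreated controls.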

In experiment [1] the test system is Blumeria graminis f. sp. tritici. Kind of experiment: Test C: test suspension sprayed on wheat seedlings, inoculated next day with Blumeria graminis f. sp. tritici (wheat powdery mildew); visual disease rating (100 = 100% disease control, 0 = no control; dash = not tested). The gist of the method: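 Wheat seedlings were sprayed to run-off with test suspension, then dusted next day with Blumeria graminis f. sp. tritici spores. After 8 days at 20 °C in a growth chamber, disease was rated visually as percent control relative to untreated controls.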

The next experiment relates to Zymoseptoria tritici. Kind of experiment: Test A: test solution sprayed on wheat seedlings, inoculated next day with Zymoseptoria tritici (wheat leaf blotch); disease rating (100 = 100% disease control, 0 = no control; dash = not tested). The gist of the method: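 Wheat seedlings sprayed to run-off with test solution, inoculated next day with Z. tritici spores, held 48 h at 24° C in saturated atmosphere, then 17 days at 20° C before rating. Scores are % disease control relative to controls (100 = full control, 0 = none).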

The test system of another experiment is Botrytis cinerea. Kind of experiment: Test E: test suspension sprayed on tomato seedlings, inoculated next day with Botrytis cinerea (tomato Botrytis); visual disease rating (100 = 100% disease control, 0 = no control; dash = not tested). The gist of the method:
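Tomato seedlings were sprayed to run-off and inoculated next day with Botrytis cinerea spores. They were held 48 h at 20° C in saturated humidity, then 3 days at 24° C. Disease control was rated visually against controls (100 = full, 0 = none).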

Experiment [2] concerns Puccinia recondita f. sp. tritici. Kind of experiment: Test B: test solution sprayed on wheat seedlings, inoculated next day with Puccinia recondita f. sp. tritici (wheat leaf rust); disease rating (100 = 100% disease control, 0 = no control; dash = not tested). The text has this: The resulting test suspensions were then used in Tests A-F. The test solution was sprayed to the point of run-off on wheat seedlings. […] A rating of 100 indicates 100% disease control and a rating of 0 indicates no disease control (relative to the controls). A dash (—) indicates the compound was not tested.

A further experiment deals with Phakopsora pachyrhizi. Kind of experiment: Test D: test solution sprayed on soybean seedlings, inoculated next day with Phakopsora pachyrhizi (Asian soybean rust); visual disease rating (100 = 100% disease control, 0 = no control; dash = not tested). The gist of the method:
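Compounds predissolved in acetone (3% of final volume), suspended at ppm concentrations in 50/50 acetone/water with 250 ppm PEG400, sprayed to run-off on soybean seedlings. Inoculated next day with spores, 24 h saturated atmosphere at 22 °C, then 8 days growth chamber at 22 °C; visual rating, 100 = full control.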

`COc1c(-c2ccc(F)cc2Cl)c(-c2cccc(F)c2Cl)nn(C)c1=O` [Compound 154]: in the experiment on Alternaria solani, the “Test F disease control rating” value was determined as 100%. Moreover, the “Test C disease control rating” value in experiment [1] amounted to 100%. Further, in the experiment on Zymoseptoria tritici, the “Test A disease control rating” value is given as 100%. In the experiment with Botrytis cinerea, the “Test E disease control rating” value is 100%. For the same compound, in experiment [2], the “Test B disease control rating” value was found to be 100%. Further, the “Test D disease control rating” value in the experiment on Phakopsora pachyrhizi is on record as 87%.
Turning to `COc1cc(OC)c(F)c(-c2nn(C)c(=O)c(Cl)c2-c2ccc(F)cc2Cl)c1` [Compound 155], the “Test F disease control rating” value in the experiment with Alternaria solani was determined as 100%. In addition, the “Test C disease control rating” value in experiment [1] worked out at 100%. Also, in the experiment on Zymoseptoria tritici, the “Test A disease control rating” value came to 99%. For the same compound, the “Test E disease control rating” value in the experiment with Botrytis cinerea was determined as 100%. Also, the “Test B disease control rating” value in experiment [2] is given as 100%. Also, in the experiment with Phakopsora pachyrhizi, the “Test D disease control rating” value was determined as 100%.
For the compound `Cn1nc(-c2ccc(F)cc2Br)c(-c2ccc(F)cc2Cl)c(Cl)c1=O` [Compound 156], the “Test F disease control rating” value in the experiment on Alternaria solani is on record as 87%. The “Test C disease control rating” value in experiment [1] came to 99%. The “Test A disease control rating” value with Zymoseptoria tritici was determined as 99%. In the experiment on Botrytis cinerea, the “Test E disease control rating” value is 100%. For the same compound, the “Test B disease control rating” value in experiment [2] amounted to 100%. Moreover, in the experiment with Phakopsora pachyrhizi, the “Test D disease control rating” value came out at 96%.
Consider `COc1cc(F)c(Cl)c(-c2nn(C)c(=O)c(Cl)c2-c2ccc(F)cc2Cl)c1` [Compound 157], for which the “Test F disease control rating” value in the experiment with Alternaria solani came out at 100%. For the same compound, the “Test C disease control rating” value in experiment [1] worked out at 100%. Besides, in the experiment with Zymoseptoria tritici, the “Test A disease control rating” value was 98%. Also, the “Test E disease control rating” value with Botrytis cinerea amounted to 99%. In experiment [2], the “Test B disease control rating” value is on record as 100%. The “Test D disease control rating” value in the experiment on Phakopsora pachyrhizi was determined as 100%.
Consider `COc1cc(F)cc(-c2nn(C)c(=O)c(Cl)c2-c2ccc(F)cc2Cl)c1Br` [Compound 158], for which the “Test F disease control rating” value with Alternaria solani is given as 99%. Moreover, in experiment [1], the “Test C disease control rating” value turned out to be 100%. Further, the “Test A disease control rating” value in the experiment with Zymoseptoria tritici is listed as 100%. Moreover, the “Test E disease control rating” value in the experiment on Botrytis cinerea came to 99%. In addition, the “Test B disease control rating” value in experiment [2] came to 100%. Further, the “Test D disease control rating” value in the experiment with Phakopsora pachyrhizi was 100%.
In the case of `COc1cc(F)c(Br)c(-c2nn(C)c(=O)c(Cl)c2-c2ccc(F)cc2Cl)c1` [Compound 159], in the experiment on Alternaria solani, the “Test F disease control rating” value is 100%. In addition, the “Test C disease control rating” value in experiment [1] is 99%. The “Test A disease control rating” value with Zymoseptoria tritici was found to be 100%. For the same compound, the “Test E disease control rating” value in the experiment with Botrytis cinerea turned out to be 99%. Besides, the “Test B disease control rating” value in experiment [2] is given as 100%. Also, the “Test D disease control rating” value in the experiment with Phakopsora pachyrhizi is 100%.
On to `COc1c(-c2ccc(F)cc2Cl)c(-c2ccccc2Cl)nn(C)c1=O` [Compound 160], for which the “Test F disease control rating” value in the experiment on Alternaria solani is 0%. The “Test C disease control rating” value in experiment [1] was determined as 100%. Besides, in the experiment with Zymoseptoria tritici, the “Test A disease control rating” value was 100%. In addition, the “Test E disease control rating” value with Botrytis cinerea is recorded as 99%. Besides, the “Test B disease control rating” value in experiment [2] came to 100%. The “Test D disease control rating” value in the experiment with Phakopsora pachyrhizi worked out at 73%.
Consider `Cc1c(-c2ccc(F)cc2Cl)c(-c2cc(O)ccc2Cl)nn(C)c1=O` [Compound 161], for which the “Test F disease control rating” value in the experiment with Alternaria solani is listed as 47%. Besides, in experiment [1], the “Test C disease control rating” value stood at 100%. Further, in the experiment with Zymoseptoria tritici, the “Test A disease control rating” value is reported as 98%. In the experiment on Botrytis cinerea, the “Test E disease control rating” value is 96%. In addition, in experiment [2], the “Test B disease control rating” value is recorded as 99%. In addition, the “Test D disease control rating” value with Phakopsora pachyrhizi was found to be 99%.
On to `COc1c(-c2ccc(F)cc2Cl)c(-c2ccc(F)cc2Br)nn(C)c1=O` [Compound 162], for which the “Test F disease control rating” value with Alternaria solani is on record as 16%. Moreover, the “Test C disease control rating” value in experiment [1] was found to be 98%. In the experiment on Zymoseptoria tritici, the “Test A disease control rating” value was found to be 100%. The “Test E disease control rating” value in the experiment with Botrytis cinerea worked out at 99%. Further, the “Test B disease control rating” value in experiment [2] is listed as 89%. The “Test D disease control rating” value in the experiment on Phakopsora pachyrhizi came to 13%.
For the compound `COc1ccc(-c2nn(C)c(=O)c(Cl)c2-c2ccc(F)cc2Cl)c(F)c1` [Compound 163], the “Test F disease control rating” value in the experiment with Alternaria solani is recorded as 99%. Also, the “Test C disease control rating” value in experiment [1] is recorded as 78%. For the same compound, in the experiment on Zymoseptoria tritici, the “Test A disease control rating” value amounted to 100%. Further, in the experiment with Botrytis cinerea, the “Test E disease control rating” value is listed as 100%. In addition, the “Test B disease control rating” value in experiment [2] stood at 100%. For the same compound, in the experiment on Phakopsora pachyrhizi, the “Test D disease control rating” value was 77%.
On to `COc1cc(F)c(Cl)c(-c2nn(C)c(=O)c(OC)c2-c2ccc(F)cc2Cl)c1` [Compound 164], for which the “Test F disease control rating” value with Alternaria solani is listed as 100%. Moreover, the “Test C disease control rating” value in experiment [1] turned out to be 99%. For the same compound, the “Test A disease control rating” value with Zymoseptoria tritici is 100%. Further, the “Test E disease control rating” value with Botrytis cinerea is 99%. Moreover, in experiment [2], the “Test B disease control rating” value was found to be 100%. In the experiment with Phakopsora pachyrhizi, the “Test D disease control rating” value is 100%.
Turning to `COc1cc(F)c(Br)c(-c2nn(C)c(=O)c(OC)c2-c2ccc(F)cc2Cl)c1` [Compound 165], in the experiment with Alternaria solani, the “Test F disease control rating” value is on record as 100%. Moreover, in experiment [1], the “Test C disease control rating” value is reported as 99%. Further, in the experiment with Zymoseptoria tritici, the “Test A disease control rating” value turned out to be 100%. Besides, in the experiment with Botrytis cinerea, the “Test E disease control rating” value is reported as 95%. Moreover, in experiment [2], the “Test B disease control rating” value came out at 100%. Also, the “Test D disease control rating” value with Phakopsora pachyrhizi worked out at 92%.
Consider `COc1ccc(-c2nn(C)c(=O)c(OC)c2-c2ccc(F)cc2Cl)c(F)c1` [Compound 166], for which the “Test F disease control rating” value with Alternaria solani is listed as 67%. In addition, the “Test C disease control rating” value in experiment [1] is 79%. Besides, in the experiment with Zymoseptoria tritici, the “Test A disease control rating” value is recorded as 100%. Moreover, the “Test E disease control rating” value in the experiment on Botrytis cinerea came out at 95%. For the same compound, the “Test B disease control rating” value in experiment [2] is listed as 91%. Further, the “Test D disease control rating” value with Phakopsora pachyrhizi is 0%.
As to `CCc1c(-c2ccc(F)cc2Cl)c(-c2ccc(F)cc2Cl)nn(C)c1=O` [Compound 167], in the experiment on Alternaria solani, the “Test F disease control rating” value is on record as 100%. Besides, the “Test C disease control rating” value in experiment [1] was 100%. In addition, in the experiment with Zymoseptoria tritici, the “Test A disease control rating” value came to 100%. The “Test E disease control rating” value in the experiment with Botrytis cinerea is on record as 86%. For the same compound, the “Test B disease control rating” value in experiment [2] worked out at 100%. Further, the “Test D disease control rating” value in the experiment with Phakopsora pachyrhizi is given as 0%.
For `Cn1nc(-c2ccc(F)cc2Cl)c(-c2ccc(F)cc2Cl)c(CO)c1=O` [Compound 168], the “Test F disease control rating” value in the experiment with Alternaria solani is reported as 0%. The “Test C disease control rating” value in experiment [1] was determined as 72%. Moreover, in the experiment with Zymoseptoria tritici, the “Test A disease control rating” value is 100%. Further, the “Test E disease control rating” value in the experiment on Botrytis cinerea is 81%. The “Test B disease control rating” value in experiment [2] was 96%. Further, in the experiment on Phakopsora pachyrhizi, the “Test D disease control rating” value stood at 0%.
As for `COc1cc(OC)c(Cl)c(-c2nn(C)c(=O)c(C)c2-c2ccc(F)cc2Cl)c1Cl` [Compound 169], the “Test F disease control rating” value in the experiment on Alternaria solani is listed as 0%. Moreover, in experiment [1], the “Test C disease control rating” value is on record as 43%. Also, the “Test A disease control rating” value in the experiment on Zymoseptoria tritici was found to be 37%. Besides, the “Test E disease control rating” value in the experiment on Botrytis cinerea came out at 93%. In addition, the “Test B disease control rating” value in experiment [2] was 68%. Further, the “Test D disease control rating” value in the experiment with Phakopsora pachyrhizi is listed as 0%.
On to `Cn1nc(-c2ccc(F)cc2Cl)c(-c2ccc(F)cc2Cl)c(CCl)c1=O` [Compound 170], for which the “Test F disease control rating” value in the experiment on Alternaria solani is reported as 80%. For the same compound, in experiment [1], the “Test C disease control rating” value is listed as 76%. Moreover, the “Test A disease control rating” value in the experiment on Zymoseptoria tritici is 99%. In the experiment with Botrytis cinerea, the “Test E disease control rating” value is 51%. Also, in experiment [2], the “Test B disease control rating” value came to 89%. The “Test D disease control rating” value in the experiment with Phakopsora pachyrhizi is listed as 0%.
For the compound `Cn1nc(-c2ccc(F)cc2Cl)c(-c2ccc(F)cc2Cl)c(CF)c1=O` [Compound 171], the “Test F disease control rating” value in the experiment on Alternaria solani is recorded as 96%. The “Test C disease control rating” value in experiment [1] stood at 99%. Also, the “Test A disease control rating” value in the experiment on Zymoseptoria tritici was found to be 99%. The “Test E disease control rating” value with Botrytis cinerea is reported as 100%. Moreover, the “Test B disease control rating” value in experiment [2] is reported as 99%. Also, the “Test D disease control rating” value in the experiment on Phakopsora pachyrhizi was 0%.
